Data on three compounds can be found in US11208412B2 (DAEGU-GYEONGBUK MEDICAL INNOVATION FOUNDATION, priority 2017, dated 2021).

Assay in all cases: Kinase selectivity, DiscoverX scanMAX Kinase assay panel (% control)
Holding throughout (assay type): binding

For assay [1], the target named is T1, kinases of the scanMAX Kinase assay panel (Homo sapiens, UniProt Q13546).
T1 construct: purchased DiscoverX Co. (contract measurement) scanMAX Kinase assay panel
T1 sequence (Q13546 1-671): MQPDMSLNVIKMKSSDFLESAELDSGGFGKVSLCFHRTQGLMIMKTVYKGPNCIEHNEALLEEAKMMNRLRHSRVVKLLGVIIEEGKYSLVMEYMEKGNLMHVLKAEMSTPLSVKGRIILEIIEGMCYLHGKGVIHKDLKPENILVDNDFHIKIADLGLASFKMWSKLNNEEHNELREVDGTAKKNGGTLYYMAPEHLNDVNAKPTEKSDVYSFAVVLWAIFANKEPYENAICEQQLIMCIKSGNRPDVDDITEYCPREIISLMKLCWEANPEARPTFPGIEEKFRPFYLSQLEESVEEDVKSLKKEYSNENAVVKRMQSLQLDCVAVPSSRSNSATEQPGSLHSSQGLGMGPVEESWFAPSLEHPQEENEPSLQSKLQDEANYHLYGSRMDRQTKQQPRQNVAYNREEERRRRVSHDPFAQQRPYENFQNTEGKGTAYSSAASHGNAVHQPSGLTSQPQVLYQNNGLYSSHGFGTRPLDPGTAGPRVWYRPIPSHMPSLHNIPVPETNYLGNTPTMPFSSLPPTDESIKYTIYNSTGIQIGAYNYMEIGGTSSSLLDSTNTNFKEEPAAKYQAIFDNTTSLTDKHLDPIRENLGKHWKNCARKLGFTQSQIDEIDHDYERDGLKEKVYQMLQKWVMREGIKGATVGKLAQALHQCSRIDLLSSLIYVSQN
To be noted: kinase RIPK1; 1 uM in DMSO. In a few lines: (§1)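 Binding-panel profiling at one concentration, 1 uM in DMSO; values are % of DMSO control after subtracting the positive-control floor. Less than 35% means activity on that kinase.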

In assay [2] the target is T2, kinases of the scanMAX Kinase assay panel (Homo sapiens, UniProt Q9NQU5).
T2 construct: purchased DiscoverX Co. (contract measurement) scanMAX Kinase assay panel
To be noted: PAK6; 1 uM. A digest of the protocol:
as §1

Assay [3] concerns the target T3, kinases of the scanMAX Kinase assay panel (Homo sapiens, UniProt Q16513).
T3 construct: purchased DiscoverX Co. (contract measurement) scanMAX Kinase assay panel
To be noted: PKN2; 1 uM. A digest of the protocol:
as §1

For assay [4], the target named is T4, kinases of the scanMAX Kinase assay panel (Homo sapiens, UniProt Q96NX5).
T4 construct: purchased DiscoverX Co. (contract measurement) scanMAX Kinase assay panel
To be noted: CAMK1G; 1 uM. A digest of the protocol:
as §1

Assay [5] concerns the target T5, kinases of the scanMAX Kinase assay panel (Homo sapiens, UniProt P42684).
T5 construct: purchased DiscoverX Co. (contract measurement) scanMAX Kinase assay panel
To be noted: ABL2; 1 uM. In a few lines:
as §1

Assay [6] deals with T6, kinases of the scanMAX Kinase assay panel (Homo sapiens, UniProt O43283).
T6 construct: purchased DiscoverX Co. (contract measurement) scanMAX Kinase assay panel
T6 sequence (O43283 1-966): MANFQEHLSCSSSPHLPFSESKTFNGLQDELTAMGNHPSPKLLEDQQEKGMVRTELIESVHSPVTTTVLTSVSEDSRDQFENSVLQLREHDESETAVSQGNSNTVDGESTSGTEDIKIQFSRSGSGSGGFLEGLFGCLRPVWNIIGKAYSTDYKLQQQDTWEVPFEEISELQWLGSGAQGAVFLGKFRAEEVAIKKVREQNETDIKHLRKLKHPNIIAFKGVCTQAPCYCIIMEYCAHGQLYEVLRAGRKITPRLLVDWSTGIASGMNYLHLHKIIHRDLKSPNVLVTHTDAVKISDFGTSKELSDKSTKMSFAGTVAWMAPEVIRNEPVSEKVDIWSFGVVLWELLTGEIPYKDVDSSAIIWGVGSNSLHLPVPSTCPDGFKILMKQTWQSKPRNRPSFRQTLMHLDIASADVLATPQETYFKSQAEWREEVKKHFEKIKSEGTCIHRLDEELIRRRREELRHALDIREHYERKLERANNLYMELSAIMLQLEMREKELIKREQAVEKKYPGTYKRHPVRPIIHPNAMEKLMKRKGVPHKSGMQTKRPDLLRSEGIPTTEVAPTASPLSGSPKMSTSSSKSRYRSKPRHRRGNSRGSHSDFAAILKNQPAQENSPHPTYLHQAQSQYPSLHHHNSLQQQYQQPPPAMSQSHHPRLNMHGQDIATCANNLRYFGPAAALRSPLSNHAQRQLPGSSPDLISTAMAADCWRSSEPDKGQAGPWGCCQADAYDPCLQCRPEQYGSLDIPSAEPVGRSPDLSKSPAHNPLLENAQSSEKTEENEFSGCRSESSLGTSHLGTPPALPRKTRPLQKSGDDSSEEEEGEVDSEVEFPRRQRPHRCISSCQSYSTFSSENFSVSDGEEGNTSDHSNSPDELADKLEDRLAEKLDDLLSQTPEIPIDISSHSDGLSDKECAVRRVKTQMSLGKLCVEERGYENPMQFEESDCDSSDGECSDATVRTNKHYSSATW
To be noted: LZK; 1 uM. In a few lines:
as §1

T2 sequence (Q9NQU5 whole entry): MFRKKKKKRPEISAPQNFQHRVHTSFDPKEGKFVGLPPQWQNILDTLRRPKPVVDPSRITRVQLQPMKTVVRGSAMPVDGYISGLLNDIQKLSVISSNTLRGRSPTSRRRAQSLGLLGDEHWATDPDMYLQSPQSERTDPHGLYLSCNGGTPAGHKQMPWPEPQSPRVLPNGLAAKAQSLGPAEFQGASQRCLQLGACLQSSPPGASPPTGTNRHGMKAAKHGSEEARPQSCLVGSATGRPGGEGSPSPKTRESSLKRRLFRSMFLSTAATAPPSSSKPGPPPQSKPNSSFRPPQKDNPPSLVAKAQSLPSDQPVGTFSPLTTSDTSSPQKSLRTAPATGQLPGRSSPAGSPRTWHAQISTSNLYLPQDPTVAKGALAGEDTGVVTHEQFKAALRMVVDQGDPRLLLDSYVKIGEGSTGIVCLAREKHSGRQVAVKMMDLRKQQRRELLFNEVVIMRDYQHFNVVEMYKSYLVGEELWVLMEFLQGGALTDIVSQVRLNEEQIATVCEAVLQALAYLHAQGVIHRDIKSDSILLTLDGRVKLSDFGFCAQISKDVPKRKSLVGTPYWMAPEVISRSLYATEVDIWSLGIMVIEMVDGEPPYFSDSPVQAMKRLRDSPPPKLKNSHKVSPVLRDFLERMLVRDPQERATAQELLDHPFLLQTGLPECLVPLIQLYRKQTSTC
T5 sequence (P42684 whole entry): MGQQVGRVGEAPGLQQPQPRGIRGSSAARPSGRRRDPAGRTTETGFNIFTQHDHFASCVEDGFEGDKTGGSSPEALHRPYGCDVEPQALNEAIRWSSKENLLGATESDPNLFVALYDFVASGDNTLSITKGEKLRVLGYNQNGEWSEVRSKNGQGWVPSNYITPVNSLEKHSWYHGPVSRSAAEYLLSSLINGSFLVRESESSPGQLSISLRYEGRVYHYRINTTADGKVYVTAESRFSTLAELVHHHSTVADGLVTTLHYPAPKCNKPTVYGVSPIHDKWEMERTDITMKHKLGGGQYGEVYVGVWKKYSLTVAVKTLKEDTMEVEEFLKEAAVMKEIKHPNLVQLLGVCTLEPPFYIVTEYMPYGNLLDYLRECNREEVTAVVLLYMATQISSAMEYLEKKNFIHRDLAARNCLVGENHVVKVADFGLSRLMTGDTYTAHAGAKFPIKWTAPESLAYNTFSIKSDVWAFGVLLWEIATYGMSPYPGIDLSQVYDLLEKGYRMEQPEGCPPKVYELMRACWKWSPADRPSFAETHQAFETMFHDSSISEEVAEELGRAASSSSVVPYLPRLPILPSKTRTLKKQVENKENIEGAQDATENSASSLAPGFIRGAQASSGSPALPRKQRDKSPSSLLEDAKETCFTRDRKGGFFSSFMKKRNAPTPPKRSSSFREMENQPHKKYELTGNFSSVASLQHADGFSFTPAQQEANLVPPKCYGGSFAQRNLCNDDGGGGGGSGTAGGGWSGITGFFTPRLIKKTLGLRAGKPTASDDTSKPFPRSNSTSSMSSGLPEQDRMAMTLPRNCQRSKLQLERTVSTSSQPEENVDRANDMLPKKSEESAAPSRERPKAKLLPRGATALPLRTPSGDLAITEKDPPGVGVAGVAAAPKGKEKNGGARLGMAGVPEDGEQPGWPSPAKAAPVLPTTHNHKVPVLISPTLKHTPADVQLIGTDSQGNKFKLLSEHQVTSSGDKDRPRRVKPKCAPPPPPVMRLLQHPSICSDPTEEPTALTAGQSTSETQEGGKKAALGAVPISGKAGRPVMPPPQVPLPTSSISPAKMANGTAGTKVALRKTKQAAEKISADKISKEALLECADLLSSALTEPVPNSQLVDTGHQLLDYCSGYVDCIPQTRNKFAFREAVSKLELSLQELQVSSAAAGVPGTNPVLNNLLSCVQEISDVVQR
T3 sequence (Q16513 whole entry): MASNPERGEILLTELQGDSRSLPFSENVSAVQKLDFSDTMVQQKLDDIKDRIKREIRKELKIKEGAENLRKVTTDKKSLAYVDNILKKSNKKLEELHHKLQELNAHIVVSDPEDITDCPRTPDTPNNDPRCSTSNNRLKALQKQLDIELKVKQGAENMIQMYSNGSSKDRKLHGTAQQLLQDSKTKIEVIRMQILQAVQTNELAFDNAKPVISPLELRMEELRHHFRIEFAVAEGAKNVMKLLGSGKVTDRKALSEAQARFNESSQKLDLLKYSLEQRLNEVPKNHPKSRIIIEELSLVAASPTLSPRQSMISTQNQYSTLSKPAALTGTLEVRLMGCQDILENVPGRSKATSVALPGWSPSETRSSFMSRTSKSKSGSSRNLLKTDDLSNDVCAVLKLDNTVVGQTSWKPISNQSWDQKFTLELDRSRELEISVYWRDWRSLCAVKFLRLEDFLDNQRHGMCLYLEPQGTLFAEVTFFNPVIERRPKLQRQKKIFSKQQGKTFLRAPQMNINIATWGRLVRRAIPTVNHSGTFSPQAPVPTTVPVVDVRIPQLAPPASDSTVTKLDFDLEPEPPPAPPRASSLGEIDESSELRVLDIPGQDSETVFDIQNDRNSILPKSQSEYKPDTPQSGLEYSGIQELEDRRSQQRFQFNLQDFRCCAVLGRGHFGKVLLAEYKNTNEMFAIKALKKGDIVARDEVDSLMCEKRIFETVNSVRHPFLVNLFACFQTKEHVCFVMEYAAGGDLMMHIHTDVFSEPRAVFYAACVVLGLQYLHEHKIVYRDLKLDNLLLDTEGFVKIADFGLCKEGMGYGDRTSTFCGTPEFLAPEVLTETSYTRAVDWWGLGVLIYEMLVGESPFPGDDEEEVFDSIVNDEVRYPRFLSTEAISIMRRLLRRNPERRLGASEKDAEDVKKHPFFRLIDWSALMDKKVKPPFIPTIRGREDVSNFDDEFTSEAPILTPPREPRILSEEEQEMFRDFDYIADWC
T4 sequence (Q96NX5 whole entry): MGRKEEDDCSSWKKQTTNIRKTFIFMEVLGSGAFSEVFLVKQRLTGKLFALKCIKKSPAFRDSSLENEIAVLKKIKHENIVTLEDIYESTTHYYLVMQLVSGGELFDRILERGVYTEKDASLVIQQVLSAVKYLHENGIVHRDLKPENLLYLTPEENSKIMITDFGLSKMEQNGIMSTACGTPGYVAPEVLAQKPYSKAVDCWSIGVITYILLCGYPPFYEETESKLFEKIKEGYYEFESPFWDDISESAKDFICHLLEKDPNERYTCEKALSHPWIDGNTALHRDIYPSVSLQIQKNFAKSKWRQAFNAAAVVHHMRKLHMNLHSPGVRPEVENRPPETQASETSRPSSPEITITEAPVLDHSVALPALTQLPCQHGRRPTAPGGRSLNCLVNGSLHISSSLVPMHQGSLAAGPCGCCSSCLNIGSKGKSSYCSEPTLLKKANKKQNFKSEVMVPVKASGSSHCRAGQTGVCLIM

As to `CC1(Nc2nc(Nc3cnn([C@H]4CCN(C5COC5)C[C@@H]4F)c3Cl)nc3[nH]cc(C#N)c23)CC1` [Example 52, 2-((5-chloro-1-((3S,4S)-3-fluoro-1-(oxetane-3-yl)piperidine-4-yl)-1H-pyrazole-4-yl)amino)((1-methylcyclopropyl)amino)-7H-pyrrolo[2,3-d]pyrimidine-5-carbonitrile], the remaining binding at 1 µM in assay [1] is 14%; in assay [2] it was 8.3%; in assay [3], 78%; in assay [4], 34%; in assay [5] it was 34%; in assay [6] it was 16%.

On to `CCNc1nc(Nc2ccc(C(=O)N3CCC(N4CCOCC4)CC3)cc2OC)nc2[nH]cc(C(F)(F)F)c12` [Example 104, (4-((4-(ethylamino)-5-(trifluoromethyl)-7H-pyrrolo[2,3-d]pyrimidine-2-yl)amino)-3-methoxyphenyl)(4-morpholinopiperidine-1-yl)methanone], for which the remaining binding at 1 µM was 100% in assay [1]; 91% in assay [2]; 100% in assay [3]; 94% in assay [4]; 100% in assay [5]; 100% in assay [6].

For the compound `CNc1nc(Nc2ccc(C(=O)N3CCOCC3)cc2OC)nc2[nH]cc(C#N)c12` [Example 1, 2-((2-methoxy-4-(morpholine-4-carbonyl)phenyl)amino)-4-(methylamino)-7H-pyrrolo[2,3-d]pyrimidine-5-carbonitrile], the remaining binding at 1 µM in assay [1] was determined as 94%; in assay [2], 76%; in assay [3], 53%; in assay [4], 74%; in assay [5], 99%; in assay [6], 81%.
